Calls of active or inactive are those of the source.
Columns and labels:
[1] = growth suppression of beta-catenin-knockout colon cells, dose response, cell-based, HCT116, human colon tumor (AID 1045); type: functional;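 further: HCT116 colon tumor cells with beta catenin knocked out; cells exposed to compound for 60 hours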
[2] = biological target: T1, Ubiquitin-conjugating enzyme E2 N (Homo sapiens, UniProt P61088); type: functional
T1 sequence (P61088 whole entry): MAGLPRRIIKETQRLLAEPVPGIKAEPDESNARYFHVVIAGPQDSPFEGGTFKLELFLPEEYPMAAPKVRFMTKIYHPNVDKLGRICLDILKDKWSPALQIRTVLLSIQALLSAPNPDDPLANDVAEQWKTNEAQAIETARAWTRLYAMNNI

[3] = biological target: T2, DNA repair protein RAD52 homolog (Homo sapiens, UniProt P43351); type: functional, biochemical
T2 sequence (P43351 whole entry): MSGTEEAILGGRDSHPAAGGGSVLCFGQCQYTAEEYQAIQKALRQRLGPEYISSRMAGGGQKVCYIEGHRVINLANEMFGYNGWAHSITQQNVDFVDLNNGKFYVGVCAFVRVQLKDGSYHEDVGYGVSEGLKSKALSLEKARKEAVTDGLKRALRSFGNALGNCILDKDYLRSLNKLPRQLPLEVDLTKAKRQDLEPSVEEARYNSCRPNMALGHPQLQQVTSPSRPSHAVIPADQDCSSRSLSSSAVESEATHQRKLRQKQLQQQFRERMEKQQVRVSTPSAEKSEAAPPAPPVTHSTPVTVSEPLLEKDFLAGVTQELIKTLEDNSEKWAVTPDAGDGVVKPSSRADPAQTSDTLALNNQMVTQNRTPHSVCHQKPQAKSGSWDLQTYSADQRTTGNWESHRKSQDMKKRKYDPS

Bcl-2-related protein A1 = biological target: T3, Bcl-2-related protein A1 (Mus musculus, UniProt Q07440); type: functional;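 further: confirmatory dose–response counterscreen on Bfl-1, used to check hits from a UBC13 polyubiquitin inhibitor campaign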
T3 sequence (Q07440 whole entry): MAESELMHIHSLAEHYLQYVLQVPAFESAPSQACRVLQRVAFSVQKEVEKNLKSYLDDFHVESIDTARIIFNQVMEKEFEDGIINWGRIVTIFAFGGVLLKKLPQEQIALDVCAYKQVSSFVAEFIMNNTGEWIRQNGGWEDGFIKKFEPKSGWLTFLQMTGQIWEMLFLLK

[4] = cytotoxicity in HPDE-C7 cells, cell-based, fluorescence, HTS (AID 430); type: functional; settings: Homo sapiens
[5] = Luminescence Cell-Based Dose Retest to Confirm Inhibitors of Cancer Stem Cells. [Related pubchem assays (depositor defined):AID2717, AID2721]; type: functional; settings: Homo sapiens
[6] = biological target: T1, Ubiquitin-conjugating enzyme E2 N; type: functional; remark: listed apart in the source
[7] = growth suppression of PTEN-null colon cells, dose response, cell-based, HCT116 PTEN knockout (AID 1047); type: functional;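 further: HCT116 colon tumor cells with PTEN knocked out; cells exposed to compound for 60 hours before readout; potency for loss of cell viability measured by luminescence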
[8] = cytotoxicity in KRAS-transformed pancreatic duct cells, primary screen, cell-based, fluorescence, HTS (AID 431); type: functional; settings: Homo sapiens;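 further: cell line used: HPDE-C7K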
Mucolipin-3 = Mucolipin-3 (Homo sapiens, UniProt Q8TDD5); experiment: Dose response cell-based high-throughput screening assay for agonists of the transient receptor potential channel ML3 (TRPML3). [Related pubchem assays: 1526, 1424, 1448 ]; type: functional
Ion channel NompC = Ion channel NompC (Danio rerio, UniProt Q7T1G6); experiment: Fluorescence counterscreen assay for TRPML3 agonists: dose response cell-based high-throughput screening assay to identify agonists of the transient receptor potential channel N1 (TRPN1). [Related pubchem assays: 1526, 1424, 1448 ]; type: functional
[9] = A Cell Based Secondary Assay To Explore Cytotoxicity of Compounds that Sensitize Mycobacterium Tuberculosis to Beta-Lactam Antibiotics.; type: functional
NADPH oxidase 1 = biological target: T4, NADPH oxidase 1 (Homo sapiens, UniProt Q9Y5S8); type: functional, cell-based;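 further: Cell-based assay with luminescence read-out, IC50 derived from inhibitor dose-response curves; intracellular ROS from endogenous NOX1 in intact HT29 colon cancer cells; potency of inhibitors that lower the ROS luminescence signal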
T4 sequence (Q9Y5S8 whole entry): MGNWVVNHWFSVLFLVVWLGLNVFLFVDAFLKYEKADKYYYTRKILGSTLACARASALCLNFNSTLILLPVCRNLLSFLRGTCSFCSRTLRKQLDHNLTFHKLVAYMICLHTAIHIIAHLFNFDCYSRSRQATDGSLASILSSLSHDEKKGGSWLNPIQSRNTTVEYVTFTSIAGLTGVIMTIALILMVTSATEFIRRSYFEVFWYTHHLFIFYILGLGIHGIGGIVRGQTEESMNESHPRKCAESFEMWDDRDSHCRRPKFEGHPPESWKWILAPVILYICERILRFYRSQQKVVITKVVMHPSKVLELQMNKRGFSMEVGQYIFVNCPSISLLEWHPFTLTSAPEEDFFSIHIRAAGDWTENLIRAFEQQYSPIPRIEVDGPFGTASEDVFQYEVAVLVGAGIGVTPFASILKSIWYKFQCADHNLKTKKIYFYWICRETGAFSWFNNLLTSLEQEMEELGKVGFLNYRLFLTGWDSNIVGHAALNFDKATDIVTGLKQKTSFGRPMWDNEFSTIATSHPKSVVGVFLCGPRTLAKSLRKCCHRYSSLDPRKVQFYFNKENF

[10] = inhibitors of intracellular T. cruzi replication, confirmation, NIH3T3 host cells, beta-gal luminescence (AID 2044); type: functional, cell-based;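 further: intracellular parasites grown in NIH/3T3 mouse fibroblasts as host cells; luminescent beta-galactosidase reporter signal from transgenic T. cruzi replicating inside host cells; inhibitors lower the luminescence signal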
[11] = cytotoxicity toward NIH3T3 fibroblasts, dose response, counter-screen, cell-based, ATP luminescence, mouse fibroblasts (AID 2010); type: functional;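 further: cells exposed to compound for about 90 hours before reading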
[12] = biological target: Lytic switch protein BZLF1 (Epstein-Barr virus (strain B95-8) (HHV-4) (Human herpesvirus 4), UniProt P03206); experiment: EBV ZTA inhibitors, dose response, counter-screen for EBNA-1 inhibitor project, biochemical, fluorescence polarization, Epstein-Barr virus, 1536-well (AID 2377); parameters: species or system human gammaherpesvirus 4;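 further: fluorescence polarization of Cy5-labelled ZRE DNA probe bound by purified Zta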
[13] = biological target: Epstein-Barr nuclear antigen 1 (Epstein-Barr virus (strain B95-8) (HHV-4) (Human herpesvirus 4), UniProt P03211); experiment: EBNA-1 inhibitors, dose response, biochemical, fluorescence polarization, 1536-well (AID 2381); parameters: species or system human gammaherpesvirus 4;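 further: fluorescence polarization of a Cy5 DNA probe bound by EBNA-1 protein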
[14] = biological target: Long-chain-fatty-acid--AMP ligase FadD28 (Mycobacterium tuberculosis, UniProt P9WQ59); experiment: Fluorescence polarization aasay to screen for inhibitors that compete for the binding of FadD28 to a bisubstrate Measured in Biochemical System Using Plate Reader - 2147-01_Inhibitor_Dose_CherryPick_Activity.; type: functional, Mycobacterium tuberculosis H37Rv
Estrogen receptor = biological target: T5, Estrogen receptor (Homo sapiens, UniProt P03372);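 further: potency for inhibiting coactivator peptide recruitment to the receptor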
T5 sequence (P03372 whole entry): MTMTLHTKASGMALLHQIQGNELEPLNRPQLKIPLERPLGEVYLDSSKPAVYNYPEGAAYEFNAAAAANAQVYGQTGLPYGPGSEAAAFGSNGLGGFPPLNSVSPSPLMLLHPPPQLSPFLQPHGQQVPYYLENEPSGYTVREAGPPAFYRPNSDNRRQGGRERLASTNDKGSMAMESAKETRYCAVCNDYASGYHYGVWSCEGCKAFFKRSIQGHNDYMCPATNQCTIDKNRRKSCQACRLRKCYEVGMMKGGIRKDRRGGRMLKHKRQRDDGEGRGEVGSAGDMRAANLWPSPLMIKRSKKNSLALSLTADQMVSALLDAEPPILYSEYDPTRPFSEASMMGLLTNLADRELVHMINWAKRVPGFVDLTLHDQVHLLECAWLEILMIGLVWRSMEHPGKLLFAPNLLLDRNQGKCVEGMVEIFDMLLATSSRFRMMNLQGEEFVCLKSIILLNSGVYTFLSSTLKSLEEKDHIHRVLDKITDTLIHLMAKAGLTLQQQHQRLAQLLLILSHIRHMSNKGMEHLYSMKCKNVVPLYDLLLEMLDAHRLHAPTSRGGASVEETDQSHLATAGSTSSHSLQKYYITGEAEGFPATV

[15] = inhibitors of firefly luciferase expression or activity, dose response, H4 neuroglioma cells, luminescence (AID 1990); type: functional, cell-based
[16] = biological target: T6, Mannose-6-phosphate isomerase (Homo sapiens, UniProt P34949); experiment: human PMI inhibitors, high substrate, primary screen, biochemical, fluorescence intensity, high mannose 6-phosphate (AID 1220)
T6 sequence (P34949 whole entry): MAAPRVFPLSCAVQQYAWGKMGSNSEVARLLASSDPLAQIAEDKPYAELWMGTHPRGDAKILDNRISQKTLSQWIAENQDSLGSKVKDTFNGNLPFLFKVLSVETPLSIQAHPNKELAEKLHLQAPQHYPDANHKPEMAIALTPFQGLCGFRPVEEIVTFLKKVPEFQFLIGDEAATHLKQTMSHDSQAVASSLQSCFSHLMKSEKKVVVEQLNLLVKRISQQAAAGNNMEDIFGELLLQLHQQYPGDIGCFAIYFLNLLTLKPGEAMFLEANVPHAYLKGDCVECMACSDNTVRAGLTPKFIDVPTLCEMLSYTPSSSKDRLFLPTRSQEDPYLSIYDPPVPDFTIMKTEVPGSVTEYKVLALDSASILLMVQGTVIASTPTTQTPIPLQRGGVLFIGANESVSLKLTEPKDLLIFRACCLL

[17] = inhibitors of SNCA 5'UTR-driven reporter translation, confirmation, H4 neuroglioma cells, luminescence (AID 1988); type: functional, cell-based
[18] = Luminescence Cell-Based Dose Response HTS to Identify Inhibitors of 5'UTR Stem-Loop Driven Prion Protein mRNA Translation in H4 Neuroglioblastoma Cells. [Related pubchem assays: 1827 (Project Summary), 1813 (Primary HTS)]; type: functional
[19] = biological target: T6, Mannose-6-phosphate isomerase; experiment: inhibitors of human PMI, primary screen, biochemical, fluorescence intensity, coupled assay (AID 1209)

Mucolipin-3, sequence (Q8TDD5 whole entry): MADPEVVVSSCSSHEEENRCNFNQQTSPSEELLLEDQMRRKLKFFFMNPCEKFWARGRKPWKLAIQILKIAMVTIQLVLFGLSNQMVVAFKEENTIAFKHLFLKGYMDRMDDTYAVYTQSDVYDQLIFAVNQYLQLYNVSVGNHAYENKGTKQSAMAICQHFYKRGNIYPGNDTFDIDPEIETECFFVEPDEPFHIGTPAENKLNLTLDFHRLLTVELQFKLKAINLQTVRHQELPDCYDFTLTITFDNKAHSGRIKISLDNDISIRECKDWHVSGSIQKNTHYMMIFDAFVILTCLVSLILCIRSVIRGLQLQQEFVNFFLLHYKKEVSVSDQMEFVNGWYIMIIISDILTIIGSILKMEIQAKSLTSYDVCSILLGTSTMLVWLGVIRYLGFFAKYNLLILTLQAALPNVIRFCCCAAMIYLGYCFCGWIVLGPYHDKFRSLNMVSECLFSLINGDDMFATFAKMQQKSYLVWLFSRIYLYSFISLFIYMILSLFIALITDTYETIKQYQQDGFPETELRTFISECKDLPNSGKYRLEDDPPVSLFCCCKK
Lytic switch protein BZLF1, sequence (P03206 whole entry): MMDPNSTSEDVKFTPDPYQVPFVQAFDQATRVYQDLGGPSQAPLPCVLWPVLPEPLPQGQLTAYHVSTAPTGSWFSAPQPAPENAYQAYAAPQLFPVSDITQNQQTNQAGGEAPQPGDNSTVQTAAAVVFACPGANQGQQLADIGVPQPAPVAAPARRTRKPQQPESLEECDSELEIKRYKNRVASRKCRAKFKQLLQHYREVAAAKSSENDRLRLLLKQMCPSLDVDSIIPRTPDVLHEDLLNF
Epstein-Barr nuclear antigen 1, sequence (P03211 whole entry): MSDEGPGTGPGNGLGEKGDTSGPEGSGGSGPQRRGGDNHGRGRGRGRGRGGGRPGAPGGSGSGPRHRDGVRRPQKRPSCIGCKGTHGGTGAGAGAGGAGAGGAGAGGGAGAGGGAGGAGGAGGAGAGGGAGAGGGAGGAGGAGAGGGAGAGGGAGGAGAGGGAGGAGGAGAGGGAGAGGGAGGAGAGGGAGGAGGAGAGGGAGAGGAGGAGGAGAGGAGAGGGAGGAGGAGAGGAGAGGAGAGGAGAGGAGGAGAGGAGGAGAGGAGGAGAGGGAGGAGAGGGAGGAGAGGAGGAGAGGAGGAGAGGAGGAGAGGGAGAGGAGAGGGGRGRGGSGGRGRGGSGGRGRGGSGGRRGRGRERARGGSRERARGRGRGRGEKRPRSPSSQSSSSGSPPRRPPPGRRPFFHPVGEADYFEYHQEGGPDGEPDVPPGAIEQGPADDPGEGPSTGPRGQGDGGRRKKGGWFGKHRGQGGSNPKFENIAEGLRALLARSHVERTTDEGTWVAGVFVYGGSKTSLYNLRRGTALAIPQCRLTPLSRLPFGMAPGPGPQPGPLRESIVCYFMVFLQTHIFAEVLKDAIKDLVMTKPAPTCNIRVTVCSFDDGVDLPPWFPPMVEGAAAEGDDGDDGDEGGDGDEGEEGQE
Ion channel NompC, sequence (Q7T1G6 whole entry): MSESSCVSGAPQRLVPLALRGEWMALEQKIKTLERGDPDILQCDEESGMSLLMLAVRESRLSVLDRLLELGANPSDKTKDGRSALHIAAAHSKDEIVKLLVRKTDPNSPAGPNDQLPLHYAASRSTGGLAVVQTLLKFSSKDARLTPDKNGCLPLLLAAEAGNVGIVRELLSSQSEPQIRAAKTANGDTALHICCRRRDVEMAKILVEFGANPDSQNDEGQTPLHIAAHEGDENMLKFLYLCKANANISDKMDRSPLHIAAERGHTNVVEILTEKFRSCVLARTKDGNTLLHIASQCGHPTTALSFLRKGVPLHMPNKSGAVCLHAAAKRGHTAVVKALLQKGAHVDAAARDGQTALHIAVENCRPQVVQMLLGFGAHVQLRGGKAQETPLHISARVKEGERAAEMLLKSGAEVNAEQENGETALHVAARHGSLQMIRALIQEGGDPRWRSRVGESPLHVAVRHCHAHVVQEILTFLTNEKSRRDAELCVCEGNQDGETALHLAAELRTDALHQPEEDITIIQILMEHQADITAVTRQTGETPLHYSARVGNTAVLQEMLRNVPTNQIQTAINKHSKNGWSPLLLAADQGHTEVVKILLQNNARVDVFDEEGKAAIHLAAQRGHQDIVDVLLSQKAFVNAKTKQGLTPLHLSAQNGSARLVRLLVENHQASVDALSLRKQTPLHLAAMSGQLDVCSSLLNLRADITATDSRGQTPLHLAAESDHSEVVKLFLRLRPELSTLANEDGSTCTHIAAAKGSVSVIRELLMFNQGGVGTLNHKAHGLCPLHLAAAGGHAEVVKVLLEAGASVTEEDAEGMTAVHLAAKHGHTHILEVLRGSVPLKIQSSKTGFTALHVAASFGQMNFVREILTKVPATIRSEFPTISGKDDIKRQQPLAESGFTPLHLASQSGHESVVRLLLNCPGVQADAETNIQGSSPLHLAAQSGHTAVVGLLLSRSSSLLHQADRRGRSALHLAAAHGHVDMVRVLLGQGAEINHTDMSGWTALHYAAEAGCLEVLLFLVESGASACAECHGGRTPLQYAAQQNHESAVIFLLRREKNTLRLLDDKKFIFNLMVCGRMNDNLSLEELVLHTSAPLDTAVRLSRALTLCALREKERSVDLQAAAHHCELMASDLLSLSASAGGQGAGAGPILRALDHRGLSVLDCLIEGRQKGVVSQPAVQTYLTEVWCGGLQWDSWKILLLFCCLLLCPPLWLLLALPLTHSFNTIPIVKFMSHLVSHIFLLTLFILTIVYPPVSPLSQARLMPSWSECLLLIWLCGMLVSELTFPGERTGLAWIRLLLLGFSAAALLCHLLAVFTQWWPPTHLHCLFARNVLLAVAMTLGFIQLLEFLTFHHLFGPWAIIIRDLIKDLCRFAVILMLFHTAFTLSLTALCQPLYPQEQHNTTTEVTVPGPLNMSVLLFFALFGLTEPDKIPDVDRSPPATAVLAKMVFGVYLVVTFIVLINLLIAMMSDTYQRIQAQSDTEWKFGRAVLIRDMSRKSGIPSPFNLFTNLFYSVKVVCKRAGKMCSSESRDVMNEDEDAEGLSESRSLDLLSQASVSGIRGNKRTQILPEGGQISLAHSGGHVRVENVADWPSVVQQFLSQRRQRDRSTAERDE
Long-chain-fatty-acid--AMP ligase FadD28, sequence (P9WQ59 whole entry): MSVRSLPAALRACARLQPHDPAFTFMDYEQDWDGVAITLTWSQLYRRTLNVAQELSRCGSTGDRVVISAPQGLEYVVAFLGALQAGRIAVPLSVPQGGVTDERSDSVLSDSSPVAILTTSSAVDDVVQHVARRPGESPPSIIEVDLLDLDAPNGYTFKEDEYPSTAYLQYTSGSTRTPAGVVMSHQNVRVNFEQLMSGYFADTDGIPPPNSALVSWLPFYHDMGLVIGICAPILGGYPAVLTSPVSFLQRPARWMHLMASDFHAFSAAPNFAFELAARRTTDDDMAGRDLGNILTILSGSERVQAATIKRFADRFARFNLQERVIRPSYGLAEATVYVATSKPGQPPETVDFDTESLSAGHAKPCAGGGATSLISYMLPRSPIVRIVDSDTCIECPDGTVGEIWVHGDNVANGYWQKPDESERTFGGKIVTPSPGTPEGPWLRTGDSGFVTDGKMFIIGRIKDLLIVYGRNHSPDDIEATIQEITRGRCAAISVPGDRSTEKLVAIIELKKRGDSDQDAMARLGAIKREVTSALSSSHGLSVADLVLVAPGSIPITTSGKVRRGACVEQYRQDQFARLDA

SMILES: OCCN1CCN(CCCN2c3ccccc3Sc3ccc(C(F)(F)F)cc32)CC1
- EC50 [1]: 8.41 µM (active)
- IC50 [2]: 17.3 µM (active)
- AC50 [3]: 12.7 µM (active)
- IC50 (Bcl-2-related protein A1): > 20 µM (inactive)
- EC50 [4]: 13.2 µM (active)
- AC50 [5]: 4.16 µM (active)
- IC50 [6]: 17.5 µM (active)
- EC50 [7]: 8.4 µM (active)
- EC50 [8]: 9.66 µM (active)

SMILES: COC(=O)CN(c1cc(Cl)ccc1OC)S(=O)(=O)c1ccc(C)cc1
- EC50 (Mucolipin-3): 3.49 µM (active)
- EC50 (Ion channel NompC): > 29.9 µM (not active)

SMILES: CCOC(=O)c1sc(NC(=O)CN2CCCC2)c(C(=O)OCC)c1C
- CC50 [9]: > 40 µM (active)

SMILES: Cc1cc(S(=O)(=O)N2CCCCCC2)c(Cl)cc1Cl
- EC50 (Mucolipin-3): > 29.9 µM (not active)
- EC50 (Ion channel NompC): > 29.9 µM (not active)

SMILES: O=C(Oc1ccc(-c2nnco2)cc1)c1sc2ccccc2c1Cl
- IC50 (NADPH oxidase 1): > 17 µM (not active)

SMILES: CN(C)CCCN(C(=O)c1ccco1)c1nc2cc3c(cc2s1)OCO3
- EC50 (cells): 0.213 µM (active)
- EC50 [10]: < 0.1 µM (active)
- AC50 [3]: 25.2 µM (active)
- EC50 [11]: > 60 µM (not active)

SMILES: Cc1cc(C)cc(NC(=O)c2cc(Cl)sc2Cl)c1
- CC50 [9]: > 20 µM (active)

SMILES: O=C(Cn1cnc2ccccc2c1=O)Nc1nc2ccccc2s1
- IC50 [12]: > 111 µM (not active)
- IC50 [13]: 51.4 µM (not active)

SMILES: CCCCCCCCNC(C)C(O)c1ccc(SC(C)C)cc1 (configuration not stated)
- EC50 [1]: 11.3 µM (active)
- EC50 [4]: > 20 µM (not active)
- EC50 [7]: 15.2 µM (active)
- EC50 [8]: > 20 µM (not active)
- AC50 [14]: 64.1 µM (active)

SMILES: COc1ccc(-n2c(SCC(=O)Nc3nccs3)nc3sc4c(c3c2=O)CCN(C)C4)cc1
- IC50 (Estrogen receptor): 8.48 µM (active)

SMILES: S=C(CCC(=S)Nc1ccc(Cl)cc1)Nc1ccc(Cl)cc1
- IC50 (NADPH oxidase 1): > 17 µM (not active)

SMILES: Cc1ccccc1NCc1ccc(O)c2ncccc12
- EC50 [15]: 11.2 µM (active)
- IC50 [16]: 11.5 µM (active)
- EC50 [17]: 10.4 µM (active)
- EC50 [18]: > 120 µM (not active)
- IC50 [19]: 12.5 µM (active)

SMILES: COc1ccc(NC(S)=NN=C(S)Nc2cccc(C(F)(F)F)c2)cc1
- IC50 [12]: > 111 µM (not active)
- IC50 [13]: 6.7 µM (active)

SMILES: O=Cc1cn(-c2ccccc2)nc1-c1cc2c(ccc3ccccc32)oc1=O
- IC50 (Estrogen receptor): 19.6 µM (active)

From ChEMBL document CHEMBL1201862, “PubChem BioAssay data set” (2004)
